Results taken from patent US9012489B2, “Phenyl-3-aza-bicyclo[3.1.0]hex-3-yl-methanones and the use thereof as medicament” (Boehringer Ingelheim International GmbH, priority 2011, dated 2015).

Target: T1, GlyT1 transporter (Homo sapiens, UniProt P48067)
T1 construct: endogenously expressing the GlyT1 transporter; host or cells: SK-N-MC human neuroblastoma cells
T1 sequence (P48067 1-706): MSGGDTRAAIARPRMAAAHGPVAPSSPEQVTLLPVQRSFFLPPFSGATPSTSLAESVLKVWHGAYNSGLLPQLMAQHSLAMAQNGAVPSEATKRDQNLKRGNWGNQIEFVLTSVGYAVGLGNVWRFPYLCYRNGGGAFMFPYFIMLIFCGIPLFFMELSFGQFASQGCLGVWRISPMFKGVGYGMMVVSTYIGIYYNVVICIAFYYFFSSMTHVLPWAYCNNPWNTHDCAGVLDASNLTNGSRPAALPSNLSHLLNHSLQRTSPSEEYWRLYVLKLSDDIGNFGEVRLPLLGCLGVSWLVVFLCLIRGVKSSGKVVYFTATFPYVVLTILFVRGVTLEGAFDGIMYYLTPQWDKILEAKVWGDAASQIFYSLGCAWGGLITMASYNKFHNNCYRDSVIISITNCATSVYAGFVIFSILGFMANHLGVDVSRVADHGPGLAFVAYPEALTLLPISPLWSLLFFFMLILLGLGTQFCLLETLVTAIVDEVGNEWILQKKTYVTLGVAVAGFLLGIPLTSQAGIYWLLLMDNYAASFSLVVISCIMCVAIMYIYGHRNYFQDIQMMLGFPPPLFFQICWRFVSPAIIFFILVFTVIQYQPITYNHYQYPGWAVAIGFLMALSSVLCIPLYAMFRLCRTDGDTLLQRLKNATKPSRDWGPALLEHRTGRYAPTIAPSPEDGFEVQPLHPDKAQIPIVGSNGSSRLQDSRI
Assay: GlyT1 assay: 3H-glycine uptake into SK-N-MC cells (Cytostar-T format)
Format: cell-based
Settings: glycine uptake in human SK-N-MC cells endogenously expressing GlyT1; 500 nM glycine, 1% DMSO, signal recorded over 60 min
In short: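 Endogenous GlyT1 in human SK-N-MC cells, confluent after 16-18 h, in HBSS with 5 mM alanine. Compounds preincubated about 5-10 min, then 500 nM glycine (half ³H) added, 1% DMSO. Scintillation-proximity uptake recorded kinetically over 60 min; IC50 from linear-range slopes over 8 concentrations, nonspecific uptake defined with 10 μM RG-1678.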

For `C[C@@H](Oc1ccc(S(C)(=O)=O)cc1C(=O)N1CC2CC2(c2coc(C3CC3)n2)C1)C(F)(F)F` (single isomer, unassigned) [Example 83], which IC50 is on record?
Its IC50 is 3 nM.
